Where two headings read alike, the source gives them in different places.
How the values were obtained:
T. congolense (IL3000) = assay: In vitro drug susceptibility assay, T. congolense; type: cell-based; settings: Trypanosoma congolense
Protocol: Drug susceptibility assays for T. congolense (IL3000) were performed with parasites cultured in HMI-9 medium supplemented with 15% horse serum. Parasites were seeded at a concentration of 1.5×10^4 parasite/well and exposed to a 4-fold compound dilution series starting at a highest in-test concentration of 64 μM. Plates were incubated for 72 h at 34° C. and 5% CO2, followed by the addition of resazurin (Sigma, Aldrich) and a further incubation period of 24 h. Cell viability was quantified by fluorescence reading (Tecan®, GENios), and IC50 values were calculated by non-linear regression (dose-response curve with variable slope) using Prism 8.0 (GraphPad Software Inc., San Diego, CA, USA).

T. brucei (Squib 427) = assay: In vitro drug susceptibility assay, T. brucei; type: cell-based; settings: Trypanosoma brucei
Protocol: (§1) Drug susceptibility assays with T. brucei (Squib 427), T. evansi type A (RoTat 1.2) and T. equiperdum (BoTat 1.1) were performed under similar conditions. Parasites were cultured in HMI-9 culture medium supplemented with 10% iFBS. To determine in vitro susceptibility of the abovementioned Trypanosoma species, 10 concentrations of a 4-fold dilution series (with a highest in-test concentration of 64 μM) was prepared for each compound, and parasites were seeded at 1.5×10^4 parasite/well. After 72 h of drug exposure at 37° C. with 5% CO2, resazurin was added to the wells (final concentration of 10 μg mL^−1), followed by another incubation for 24 h. Cell viability was determined by fluorescence reading (Tecan®, GENios) and 50% inhibitory concentration (IC50) was calculated for each compound.

[1] = system: T. equiperdum (BoTat 1.1); assay: In vitro drug susceptibility assay, T. equiperdum; type: cell-based; settings: Trypanosoma equiperdum
Protocol: as §1

[2] = system: isometamidium (ISM)-resistant T. congolense strain (MSORO M7H); assay: Ex vivo drug susceptibility assay, T. congolense ISM-resistant; type: cell-based; settings: Trypanosoma congolense; Table 2; two independent repeat experiments; read-out: IC50 T. congolense ISM-R
Source text: (§2) T. congolense (IL3000), the isometamidium (ISM)-resistant T. congolense strain (MSORO M7H), T. evansi type A (RoTat 1.2), T. evansi type B (KETRI 2479) and T. equiperdum (BoTat 1.1) used for in vitro, ex vivo and in vivo experiments were kindly provided by the Institute of Tropical Medicine (ITM), and T. vivax (ILRAD700) and T. congolense (TC13) used for ex vivo and in vivo experiments, were kindly provided by the University of Brussel (VUB).
(§3) Ex Vivo Drug Susceptibility Assays for T. vivax, T. congolense ISM-Resistant, and T. evansi Type B
(§4) For Trypanosoma species/strains that were not adapted to culture conditions, donor mice were infected intraperitoneally with 10^4 parasites. Around day 5-6 post infection, blood was collected via cardiac puncture and parasites were isolated using mini-anion exchange centrifugation technique (mAECT). 4-fold dilutions of the test compounds were prepared with the highest concentration of 64 μM, and parasites were seeded at 1×10^5 parasite/well. Following 24 h of drug exposure at 37° C. and 5% CO2, resazurin was added to the wells and plates were incubated (37° C./5% CO2) for another 24 h. Cell viability was determined by fluorescence reading (Tecan®, GENios), and IC50 values were calculated by non-linear regression (dose-response curve with variable slope) using Prism 8.0 (GraphPad Software Inc., San Diego, CA, USA).

[3] = In vitro metabolic stability, mouse liver S9; type: in vitro ADME; settings: for metabolic stability in mouse liver microsomes: mouse liver S9, phase-I, without 1-ABT; for effect of 1-aminobenzotriazole (1-ABT) on phase-I metabolic decay: mouse microsome pre-incubated with 1-ABT
Protocol: The metabolic stability of selected compounds was determined in the presence of mice, horse, and bovine liver microsome fractions (S9) through phase-I (CYP450 and NADPH dependent enzymes) and Phase-II (UGT enzymes) metabolisms. Samples were collected after 0, 15, 30, and 60 minutes of incubation and the corresponding loss of parent compound was determined via liquid chromatography (UPLC) (Waters Aquity™) coupled with tandem quadrupole mass spectrometry (MS^2) (Waters Xevo™), equipped with an electrospray ionization (ESI) interface and operated in multiple reaction monitoring (MRM) mode.

[4] = system: T. evansi type B (KETRI 2479); assay: Ex vivo drug susceptibility assay, T. evansi type B; type: cell-based; settings: Table 2; two independent repeat experiments
Source text: as §2, §3, §4

T. vivax (ILRAD700) = assay: Ex vivo drug susceptibility assay, T. vivax; type: cell-based; settings: Trypanosoma vivax
Source text: as §2, §3, §4

[5] = Cytotoxicity assay on MRC-5 fibroblasts; type: cell-based; settings: human; for CC50 at 3 day: MRC-5SV2 embryonic lung fibroblasts, Table 1, mean and SEM of two independent experiments, highest concentration 64 μM, read-out: MRC-5 off-target cytotoxicity (CC50); for IC50 at 3 day: MRC-5SV2 human embryonic lung fibroblasts
Protocol: MRC-5SV2 (Sigma-Aldrich/ECACC, catalogue number 84100401) human embryonic lung fibroblasts were used to perform cytotoxicity assays. The cells were cultured in minimum essential medium (MEM, Life Technologies) with Earle's salt medium, supplemented with L-glutamine, NaHCO3 and 5% inactivated fetal bovine serum (iFBS). Cells were seeded at 1.5×10^4 cells/well and 4-fold compound dilutions were immediately added with a highest in-test concentration of 64 μM. After a 3-day incubation, resazurin (Sigma-Aldrich) was added to each well (final concentration of 10 μg mL^−1), and cell viability was assessed by fluorescent reading (Tecan®, GENios) following 4 h of incubation with resazurin (37° C./5% CO2). The results were expressed as percentage reduction in cell growth/viability compared to control wells and the 50% cytotoxic concentration (CC50) was calculated for each of the compounds.

[6] = system: T. evansi type A (RoTat 1.2); assay: In vitro drug susceptibility assay, T. evansi type A; type: cell-based
Protocol: as §1

L. infantum = assay: In vitro evaluation against L. infantum; type: cell-based; settings: Leishmania infantum; Table 3; compounds wherein X=N
[7] = In vitro evaluation on PMM; type: cell-based; settings: mouse, Table 3, compounds wherein X=N
T. cruzi = assay: In vitro evaluation against T. cruzi; type: cell-based; settings: Trypanosoma cruzi; Table 3; compounds wherein X=N
[8] = system: T. B. brucei AnTAR1.1 PPYRE9; assay: Bioluminescent T. brucei late curative mouse model; type: in vivo, female Swiss mice; settings: single-dose i.p. 50 mg kg−1
Protocol: Female Swiss mice (BW˜20-24 g; Janvier Labs, France) were randomly allocated to group of 3 animals and were intraperitoneally infected with 2×10^3 T. B. brucei AnTAR1.1 PPYRE9 derived from a heavily infected donor mouse. FH15967 was formulated in 10% (v/v) polyethylene glycol 400 (PEG400) in water at 2 mg mL^−1 and was administrated to separate groups as single dose s.i.d. i.p. at 50 mg kg-1 (n=3), and b.i.d i.p. at 50 mg kg^−1 (n=3). The reference drug diminazene aceturate was formulated in PBS at 2.5 mg mL^−1 and administrated s.i.d i.p. as a single dose at 10 mg kg^−1. Treatment was initiated at 3 dpi when parasitemia reached 10^6 parasites mL^−1, and parasitemia was microscopically determined via Neubaur improved haemocytometer on a daily basis until 7 dpi. Bioluminescent images were obtained at 3, 5 and 7 dpi to determine parasite burdens in the body. Accordingly, D-luciferin was injected i.p. at 15 mg kg^−1, animals were anaesthetised using isoflurane, and luminescent signals were acquired from both the dorsal and ventral sides of the animals. […] BLI images that obtained from IVIS Spectrum In vivo Imaging System (Perkin Elmer) were quantified with Living Image V4.3.1 SoftWoRx Suite 2.0 for microscopy, then processing using the Fiji software.

[9] = Table 2, two independent repeat experiments
[10] = Table 1, mean and SEM of two independent experiments, read-out: T. brucei in vitro activity (IC50)
[11] = Table 2, two independent repeat experiments, read-out: IC50 T. brucei
[12] = Table 1, mean and SEM of two independent experiments, read-out: T. vivax in vitro activity (IC50)
[13] = Table 2, two independent repeat experiments, read-out: IC50 T. vivax
[14] = Table 2, two independent repeat experiments, read-out: IC50 T. evansi (type A)
[15] = Table 3, compounds wherein X=N, read-out: IC50 T. brucei
[16] = Table 3, compounds wherein X=N, read-out: IC50 T. vivax
[17] = Table 3, compounds wherein X=N, type not stated, read-out: IC50 T. evansi

| SMILES | IC50 (T. congolense (IL3000); [9]) [nM] | IC50 (T. brucei (Squib 427); [10]) [nM] | IC50 (T. brucei (Squib 427); [11]) [nM] | IC50 [1, 9] [nM] | IC50 [2] [nM] | metabolic stability in mouse liver microsomes [3] | effect of 1-aminobenzotriazole (1-ABT) on phase-I metabolic decay [3] | IC50 [4] [nM] | IC50 (T. vivax (ILRAD700); [12]) [nM] | IC50 (T. vivax (ILRAD700); [13]) [nM] | CC50 at 3 day [5] [nM] | IC50 at 3 day [5, 9] [nM] | IC50 [6, 14] [nM] | IC50 (T. congolense (IL3000); Table 3, compounds wherein X=N) [nM] | IC50 (T. brucei (Squib 427); [15]) [nM] | IC50 (L. infantum) [nM] | IC50 ([1]; Table 3, compounds wherein X=N) [nM] | IC50 [7] [nM] | IC50 (T. cruzi) [nM] | IC50 (T. vivax (ILRAD700); [16]) [nM] | other results |
| --- | --- | --- | --- | --- | --- | --- | --- | --- | --- | --- | --- | --- | --- | --- | --- | --- | --- | --- | --- | --- | --- |
| C=CCSc1ncnc2c1ccn2[C@@H]1O[C@H](CO)[C@@H](O)[C@H]1O [FH15963, 4-S-allyl-N7-(β-D-ribofuranosyl)pyrrolo[2,3-d]pyrimidine] | 180 ± 8 | 34 ± 1 | 34 ± 1 | 25 ± 4 | 140 ± 50 | phase-I metabolic degradation | adequately block phase-I metabolic decay | 14 ± 4 | 34 ± 4 | 34 ± 4 | > 64000 | > 64000 | 100 ± 5 |  |  |  |  |  |  |  |  |
| CSc1ncnc2c1ccn2[C@@H]1O[C@H](CO)[C@@H](O)[C@H]1O [FH15961/CL5565] | 43 ± 8 | 440 ± 1 | 490 ± 100 | 40 ± 0.2 | 430 ± 20 | phase-I metabolic degradation | adequately block phase-I metabolic decay | 16 ± 3 | 5 ± 10 | 4 ± 2 | > 64000 | > 64000 | 760 ± 30 |  |  |  |  |  |  |  |  |
| CCSc1ncnc2c1cnn2[C@@H]1O[C@H](CO)[C@@H](O)[C@H]1O [JB1032, 4-ethylthio-1-β-D-ribofuranosyl-1H-pyrazolo[3,4-d]pyrimidine] |  | 510 ± 50 |  |  |  |  |  |  | 1360 ± 300 |  | > 64000 |  |  | 290 | 450 | 5040 | 50 | > 64000 | 5610 | 1420 | IC50 at 3 day ([5]; Table 3, compounds wherein X=N): > 64000 nM; IC50 [6, 17]: 390 nM |
| OC[C@H]1O[C@@H](n2ncc3c(SCc4ccccc4)ncnc32)[C@H](O)[C@@H]1O [JB1034, 4-benzylthio-1-β-D-ribofuranosyl-1H-pyrazolo[3,4-d]pyrimidine] |  |  |  |  |  |  |  |  |  |  |  |  |  | 30 | 50 | 10100 | 20 | > 64000 | 6020 | 7240 | IC50 at 3 day ([5]; Table 3, compounds wherein X=N): > 64000 nM; IC50 [6, 17]: 100 nM |
| CCCCSc1ncnc2c1cnn2[C@@H]1O[C@H](CO)[C@@H](O)[C@H]1O [JB1033, 4-butylthio-1-β-D-ribofuranosyl-1H-pyrazolo[3,4-d]pyrimidine] |  | 260 ± 10 |  |  |  |  |  |  | 1210 ± 420 |  | > 64000 |  |  | 200 | 110 | 7250 | 10 | > 64000 | 7460 | 1200 | IC50 at 3 day ([5]; Table 3, compounds wherein X=N): > 64000 nM; IC50 [6, 17]: 60 nM |
| OC[C@H]1O[C@@H](n2ccc3c(Sc4ccccc4)ncnc32)[C@H](O)[C@@H]1O [FH15967, 4-S-phenyl-N7-(β-D-ribofuranosyl)pyrrolo[2,3-d]pyrimidine] | 100 ± 20 | 31 ± 8 | 31 ± 8 | 26 ± 5 | 180 ± 9 | phase-I metabolic degradation | adequately block phase-I metabolic decay | 18 ± 6 | 44 ± 5 | 44 ± 5 | > 64000 | > 64000 | 33 ± 6 |  |  |  |  |  |  |  | parasitemia decline by bioluminescent imaging and signal quantification ([8]; even faster than the diminazene aceturate reference group): rapid parasitemia decline; blood parasitemia ([8]; until day 7 post infection): negative blood parasitemia |

Reference: patent US20250320245A1, “Nucleoside Analogues for the Treatment of Parasitic Infections” (Universiteit Antwerpen, priority 2021, published 2025)
